14 compounds from ChEMBL document CHEMBL1201862, “PubChem BioAssay data set” (2004) can be followed below.

Each structure is given as a SMILES string. Active and inactive are the calls of the source.

Experiment [1] is described as follows: viability loss in human Jurkat cells – cell-based, luminescence, cytotoxicity control for P. falciparum gametocyte viability project, dose response (AID 1117277).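 Note: potency reflects loss of cellular ATP meaning fewer viable cells.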 The format is functional.
Experiment [2] can be described thus: viability inhibitors of stage V gametocytes – luminescence, dose response (AID 1117278).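 Note: gametocytes exposed to compound for 24 hours.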 The format is functional, cell-based.
Experiment [3] in a line: general cell-killing toxicity readout – plate reader, dry powder samples, cytotoxicity control for PAX8 inhibitor project, dose response (AID 743021). In kind it is functional, cell-based.
The nature of experiment [4]: OVCAR8 cell viability loss – plate reader, dry powder samples, PAX8 project, dose response (AID 743197). The format is functional, cell-based. Conditions: OVCAR-8.
The nature of experiment [5]: IGROV1 cell killing – plate reader, dry powder samples, PAX8 inhibitor project, dose response (AID 743043). In kind it is functional, cell-based. Conditions: IGROV-1.
A further experiment deals with Paired box protein Pax-8 (Homo sapiens, UniProt Q06710). In words: PAX8 transcriptional activity inhibition in RMG-I – RMG-I cells, luciferase, cherry-pick, dose response (AID 687027).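 Note: luciferase reporter driven by Pax8 target thyroperoxidase promoter measured by SteadyGlo luminescence.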 In kind it is functional, cell-based.
Experiment [6] has as its target Disintegrin and metalloproteinase domain-containing protein 17 (Homo sapiens, UniProt P78536). Put plainly: exosite inhibitors of ADAM17, dose response, biochemical (AID 743260).
Experiment [7] in a line: inhibition of ADAM10 peptide cleavage – biochemical, FRET peptide substrate, recombinant human ADAM10, selectivity assay for ADAM17 exosite inhibitor project, dose response (AID 743259).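 Note: ADAM10 enzyme cleaving a FRET peptide substrate.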
The target of another experiment is Ephrin type-A receptor 4 (Mus musculus, UniProt Q03137). Put plainly: EphA4 ligand-binding antagonists – biochemical, colorimetric, mouse EphA4, primary screen (AID 689). The format is functional.
In experiment [8] the target is T1, Mannose-6-phosphate isomerase (Homo sapiens, UniProt P34949).
T1 sequence (P34949 whole entry): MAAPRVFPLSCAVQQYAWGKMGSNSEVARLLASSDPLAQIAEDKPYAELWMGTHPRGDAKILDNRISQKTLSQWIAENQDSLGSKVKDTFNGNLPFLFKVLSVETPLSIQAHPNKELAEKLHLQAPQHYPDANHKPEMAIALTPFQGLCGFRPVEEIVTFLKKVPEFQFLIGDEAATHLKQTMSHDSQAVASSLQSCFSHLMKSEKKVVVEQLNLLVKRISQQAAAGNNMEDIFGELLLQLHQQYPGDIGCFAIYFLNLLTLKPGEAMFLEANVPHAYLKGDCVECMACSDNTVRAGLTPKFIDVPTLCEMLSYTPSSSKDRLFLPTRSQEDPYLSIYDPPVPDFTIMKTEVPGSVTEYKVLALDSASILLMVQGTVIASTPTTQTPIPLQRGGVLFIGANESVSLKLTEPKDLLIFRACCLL
In words: MPI inhibition at elevated mannose 6-phosphate – biochemical, fluorescence intensity, high mannose 6-phosphate, primary screen (AID 1220).

Experiment [9] is described as follows: NIH3T3 cell viability loss – ATP luminescence, mouse fibroblasts, counter-screen, dose response (AID 2010).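 Note: cells exposed to compound for about 90 hours before reading.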 In kind it is functional, cell-based.
Experiment [10] can be described thus: Trypanosoma cruzi growth suppression in host cells – NIH3T3 host cells, beta-gal luminescence, confirmation (AID 2044).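 Note: intracellular parasites grown in NIH/3T3 mouse fibroblasts as host cells; luminescent beta-galactosidase reporter signal from transgenic T. cruzi replicating inside host cells; inhibitors lower the luminescence signal.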 The format is functional, cell-based.
Experiment [11] in a line: microbe, parasite or virus in culture. The format is functional. The note with it: Mycobacterium tuberculosis.
The nature of experiment [12]: viability of uninfected HEp-2 cells – cell-based, HTS, cytotoxicity control for RSV inhibitor project, dose response (AID 2410). Conditions: human respiratory syncytial virus. In kind it is functional.
Experiment [13] concerns the target T2, Heat shock factor protein 1 (Mus musculus, UniProt P38532).
T2 sequence (P38532 whole entry): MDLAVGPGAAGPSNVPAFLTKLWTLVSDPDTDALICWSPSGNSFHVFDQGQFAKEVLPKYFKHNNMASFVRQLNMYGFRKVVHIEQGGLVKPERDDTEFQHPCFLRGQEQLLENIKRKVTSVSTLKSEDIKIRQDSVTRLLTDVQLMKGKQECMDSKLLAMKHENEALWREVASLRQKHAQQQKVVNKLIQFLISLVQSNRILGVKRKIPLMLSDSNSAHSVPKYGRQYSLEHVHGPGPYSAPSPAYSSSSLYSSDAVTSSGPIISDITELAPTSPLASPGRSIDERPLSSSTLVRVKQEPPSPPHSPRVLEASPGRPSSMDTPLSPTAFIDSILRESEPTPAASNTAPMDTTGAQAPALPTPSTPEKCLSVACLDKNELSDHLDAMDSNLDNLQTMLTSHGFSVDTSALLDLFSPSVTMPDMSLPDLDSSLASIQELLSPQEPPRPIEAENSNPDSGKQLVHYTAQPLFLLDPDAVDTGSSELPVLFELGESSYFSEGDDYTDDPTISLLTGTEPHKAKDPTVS
Put plainly: decrease of HSF1-responsive luciferase luminescence – cell-based, NIH3T3, dose retest, confirmation (AID 2382).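 Note: NIH3T3 fibroblasts with HSF1-driven luciferase reporter stressed by proteasome inhibitor MG132; luminescence from HSF1-driven luciferase expression after 8 hours of MG132 stress.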 The format is functional.

For another experiment, the system named is CHO. In words: CHO cell viability loss, potency – luminescence, cytotoxicity control for TLR9-MyD88 binding inhibitor project, dose response (AID 588339).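 Note: CHO cells stably coexpressing TLR9 and MyD88 fusions from primary screen; compound exposure lasted 48 hours before viability readout.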 The format is functional, cell-based, hamster. The note with it: Cricetulus griseus.
Another experiment deals with Beta Lactamase (Pseudomonas aeruginosa, UniProt Q932Y6). Put plainly: BLA reporter interference, concentration series – BLA reporter cells, FRET fluorescence, artefact control for TLR9-MyD88 binding inhibitor project, dose response (AID 588341).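 Note: cell based assay in CHO-K1 cells stably expressing beta-lactamase.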 The format is cell-based.
Another experiment in a line: cells. The format is functional.
The target of the next experiment is T3, Protein RecA (Mycobacterium tuberculosis, UniProt P9WHJ3).
T3 sequence (P9WHJ3 whole entry): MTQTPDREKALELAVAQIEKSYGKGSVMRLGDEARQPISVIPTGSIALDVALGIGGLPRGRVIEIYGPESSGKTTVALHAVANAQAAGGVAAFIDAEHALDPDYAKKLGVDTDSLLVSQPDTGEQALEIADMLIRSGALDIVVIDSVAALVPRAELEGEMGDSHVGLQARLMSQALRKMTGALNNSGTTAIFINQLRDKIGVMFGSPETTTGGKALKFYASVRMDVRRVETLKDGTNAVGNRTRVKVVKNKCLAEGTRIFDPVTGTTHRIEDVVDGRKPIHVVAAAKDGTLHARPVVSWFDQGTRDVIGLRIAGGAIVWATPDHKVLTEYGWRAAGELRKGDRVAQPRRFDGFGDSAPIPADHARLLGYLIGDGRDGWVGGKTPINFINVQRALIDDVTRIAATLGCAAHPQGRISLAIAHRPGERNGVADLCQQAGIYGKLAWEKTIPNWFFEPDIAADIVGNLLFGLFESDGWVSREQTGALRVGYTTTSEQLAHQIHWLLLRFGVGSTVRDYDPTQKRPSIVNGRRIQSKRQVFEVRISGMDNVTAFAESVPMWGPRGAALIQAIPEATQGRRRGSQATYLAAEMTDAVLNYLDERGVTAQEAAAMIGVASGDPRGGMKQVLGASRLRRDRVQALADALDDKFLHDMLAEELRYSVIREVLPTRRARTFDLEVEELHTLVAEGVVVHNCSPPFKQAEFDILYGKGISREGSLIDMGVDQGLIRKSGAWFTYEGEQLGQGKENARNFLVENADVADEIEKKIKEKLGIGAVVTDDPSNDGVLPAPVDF
In words: Fluorescence Cell-Free Homogeneous Dose Retest to Identify Inhibitors of RecA-Intein Splicing Activity. [Related pubchem assays (depositor defined):AID2097, AID2223, AID489010, AID492950]. In kind it is functional.

The target of experiment [14] is T4, Replicative DNA helicase DnaB (Mycobacterium tuberculosis, UniProt P9WMR3).
T4 sequence (P9WMR3 whole entry): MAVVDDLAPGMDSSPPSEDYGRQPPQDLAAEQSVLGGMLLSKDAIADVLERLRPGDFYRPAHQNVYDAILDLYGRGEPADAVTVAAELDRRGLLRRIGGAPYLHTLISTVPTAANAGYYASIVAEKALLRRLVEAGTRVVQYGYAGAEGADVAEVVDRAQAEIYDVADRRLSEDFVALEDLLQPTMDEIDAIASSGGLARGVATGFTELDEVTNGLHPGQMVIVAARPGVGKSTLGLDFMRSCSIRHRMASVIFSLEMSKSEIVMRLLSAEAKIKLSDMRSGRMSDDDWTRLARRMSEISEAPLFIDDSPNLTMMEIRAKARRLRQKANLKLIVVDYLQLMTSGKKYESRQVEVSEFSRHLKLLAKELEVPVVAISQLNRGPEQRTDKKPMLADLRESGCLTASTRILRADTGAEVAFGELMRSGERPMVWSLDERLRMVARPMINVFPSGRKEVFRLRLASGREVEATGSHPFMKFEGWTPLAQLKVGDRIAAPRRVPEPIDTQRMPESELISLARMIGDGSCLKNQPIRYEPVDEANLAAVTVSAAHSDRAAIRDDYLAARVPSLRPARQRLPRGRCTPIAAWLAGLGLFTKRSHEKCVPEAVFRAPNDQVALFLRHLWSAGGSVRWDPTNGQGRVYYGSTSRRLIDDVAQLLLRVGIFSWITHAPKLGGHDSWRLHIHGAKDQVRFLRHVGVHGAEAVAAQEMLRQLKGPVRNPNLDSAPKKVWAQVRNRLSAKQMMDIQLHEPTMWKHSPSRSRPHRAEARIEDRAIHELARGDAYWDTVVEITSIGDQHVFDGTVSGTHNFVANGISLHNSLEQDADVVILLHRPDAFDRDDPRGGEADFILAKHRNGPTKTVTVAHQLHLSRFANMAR
In words: DnaB intein splicing inhibitors, dose response, biochemical, cell-free fluorescence (AID 449749). The format is functional.

The nature of experiment [15]: THP-1 cell cytotoxicity, dose response, cytotoxicity control for non-replicating M. tuberculosis project (AID 489025). In kind it is functional.

Sequence of Disintegrin and metalloproteinase domain-containing protein 17 (P78536 whole entry, the tested form may be a part): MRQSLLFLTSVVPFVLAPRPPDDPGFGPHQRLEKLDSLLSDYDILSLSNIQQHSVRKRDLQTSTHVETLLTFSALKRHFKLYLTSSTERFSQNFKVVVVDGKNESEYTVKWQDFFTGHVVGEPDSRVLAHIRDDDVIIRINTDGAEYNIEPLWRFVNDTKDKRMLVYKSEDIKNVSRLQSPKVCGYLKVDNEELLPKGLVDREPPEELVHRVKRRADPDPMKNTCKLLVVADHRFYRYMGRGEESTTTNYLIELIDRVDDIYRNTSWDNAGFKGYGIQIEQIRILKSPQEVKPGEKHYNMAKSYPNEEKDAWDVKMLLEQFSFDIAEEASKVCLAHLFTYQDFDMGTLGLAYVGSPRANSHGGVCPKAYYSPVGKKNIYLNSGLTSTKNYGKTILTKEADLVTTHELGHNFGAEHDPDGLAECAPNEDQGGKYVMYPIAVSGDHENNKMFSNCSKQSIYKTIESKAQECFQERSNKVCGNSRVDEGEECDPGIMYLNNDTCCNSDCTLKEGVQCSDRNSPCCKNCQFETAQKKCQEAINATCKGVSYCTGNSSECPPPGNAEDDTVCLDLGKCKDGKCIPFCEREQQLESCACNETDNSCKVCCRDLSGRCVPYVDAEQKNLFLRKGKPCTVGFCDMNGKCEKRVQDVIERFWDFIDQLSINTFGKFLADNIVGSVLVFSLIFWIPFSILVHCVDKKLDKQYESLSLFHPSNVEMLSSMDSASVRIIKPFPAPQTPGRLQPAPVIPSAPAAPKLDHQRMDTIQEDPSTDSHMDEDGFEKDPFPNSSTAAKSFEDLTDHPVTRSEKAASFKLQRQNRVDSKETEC
Sequence of Ephrin type-A receptor 4 (Q03137 whole entry): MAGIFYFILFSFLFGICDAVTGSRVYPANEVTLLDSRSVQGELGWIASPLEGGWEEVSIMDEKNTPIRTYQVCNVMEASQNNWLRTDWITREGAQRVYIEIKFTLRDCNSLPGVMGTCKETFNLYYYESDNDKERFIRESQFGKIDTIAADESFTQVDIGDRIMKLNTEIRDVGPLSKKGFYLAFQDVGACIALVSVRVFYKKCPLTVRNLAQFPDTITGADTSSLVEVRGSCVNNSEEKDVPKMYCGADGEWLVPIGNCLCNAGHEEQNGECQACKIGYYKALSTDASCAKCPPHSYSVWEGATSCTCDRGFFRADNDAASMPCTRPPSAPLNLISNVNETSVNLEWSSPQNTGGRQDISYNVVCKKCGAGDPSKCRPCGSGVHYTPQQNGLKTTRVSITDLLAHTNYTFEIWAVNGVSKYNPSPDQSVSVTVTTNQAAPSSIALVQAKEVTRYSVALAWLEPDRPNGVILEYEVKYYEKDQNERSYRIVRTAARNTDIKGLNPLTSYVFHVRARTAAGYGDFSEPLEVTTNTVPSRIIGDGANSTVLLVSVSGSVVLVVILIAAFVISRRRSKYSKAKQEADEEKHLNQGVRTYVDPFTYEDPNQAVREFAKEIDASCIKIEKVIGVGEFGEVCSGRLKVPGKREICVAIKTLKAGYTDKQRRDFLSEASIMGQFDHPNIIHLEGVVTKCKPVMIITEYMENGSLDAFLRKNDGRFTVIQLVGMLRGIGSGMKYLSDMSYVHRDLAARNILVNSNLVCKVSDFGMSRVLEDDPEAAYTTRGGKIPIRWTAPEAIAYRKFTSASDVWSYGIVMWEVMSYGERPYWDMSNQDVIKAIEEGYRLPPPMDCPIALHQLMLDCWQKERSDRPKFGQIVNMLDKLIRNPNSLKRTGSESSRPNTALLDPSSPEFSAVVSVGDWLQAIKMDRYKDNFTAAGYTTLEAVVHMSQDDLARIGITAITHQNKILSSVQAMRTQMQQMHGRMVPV
Sequence of Paired box protein Pax-8 (Q06710 whole entry, the tested form may be a part): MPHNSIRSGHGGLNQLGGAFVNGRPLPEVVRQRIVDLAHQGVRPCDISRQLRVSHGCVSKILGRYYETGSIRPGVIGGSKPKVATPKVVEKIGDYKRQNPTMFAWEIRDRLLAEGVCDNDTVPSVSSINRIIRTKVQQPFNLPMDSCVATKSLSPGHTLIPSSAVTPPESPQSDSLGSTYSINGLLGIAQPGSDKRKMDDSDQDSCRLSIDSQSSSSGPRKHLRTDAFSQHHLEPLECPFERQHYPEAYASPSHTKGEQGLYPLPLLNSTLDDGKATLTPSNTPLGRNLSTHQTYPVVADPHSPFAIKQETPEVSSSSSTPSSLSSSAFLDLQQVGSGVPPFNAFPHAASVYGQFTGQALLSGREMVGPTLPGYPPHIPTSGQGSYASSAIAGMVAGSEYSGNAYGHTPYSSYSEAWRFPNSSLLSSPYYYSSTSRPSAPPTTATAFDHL
Sequence of Beta Lactamase (Q932Y6 whole entry): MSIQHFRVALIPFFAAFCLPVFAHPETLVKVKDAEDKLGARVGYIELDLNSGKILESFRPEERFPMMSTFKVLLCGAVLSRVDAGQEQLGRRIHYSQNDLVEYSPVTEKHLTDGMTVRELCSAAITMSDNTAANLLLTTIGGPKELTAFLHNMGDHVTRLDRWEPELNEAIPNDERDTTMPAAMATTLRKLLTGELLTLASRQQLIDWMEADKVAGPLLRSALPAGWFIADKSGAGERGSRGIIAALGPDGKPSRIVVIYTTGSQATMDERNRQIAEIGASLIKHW

For orientation: IC50 means the concentration at which inhibition is half-maximal. Regarding `CCOC(=O)c1ccc(NC(=O)CCOc2ccc(C)cc2)cc1`, the results for the IC50 in [1] and in [2] were > 83.3 µM (inactive) and > 109 µM (inactive), respectively.

A word on the AC50: it is the midpoint of the concentration-response curve, whichever way the signal moves. Turning to `C[C@@H]1CN([C@H](C)CO)C(=O)c2cc(NC(=O)Nc3ccc(C(F)(F)F)cc3)ccc2O[C@@H](C)CCCCO[C@H]1CN(C)Cc1ccc2c(c1)OCO2`, the AC50 is 66.4 µM (active) in experiment [3], 31.6 µM (active) in experiment [4], 26.7 µM (active) in experiment [5] and 7.63 µM (active) on Paired box protein Pax-8.

As to `Cc1noc(C)c1C(=O)OCC(=O)Nc1ccccc1Oc1ccccc1`, the IC50 in experiment [6] and in experiment [7] was > 69.5 µM (inactive) in each case.

On to `Cn1cc([N+](=O)[O-])c(C(=O)Nc2ccc3c(c2)OCCO3)n1`, for which, at Ephrin type-A receptor 4, the IC50 is given as > 100 µM (not active).

On to `Cc1sc2c(=O)n3c(nc2c1C(=O)NC1CCCCC1)CCCCC3`, for which the values for the IC50 in experiment [1] and in [2] were > 83.3 µM (inactive) and > 109 µM (inactive), respectively.

For `COCCO/C(O)=C1\C(C)=NC2(O)c3ccccc3C(=O)C12O` (stereo unspecified), the half-maximal inhibitory concentration (IC50) in experiment [8] is listed as > 50 µM (not active).

The EC50 is the concentration that produces a half-maximal response. For `COc1ccc(C(=O)C[n+]2cc(-c3ccc(OC)cc3)n3c2CCCC3)cc1`, the results for the IC50 in [1] and in experiment [2] were > 83.3 µM (inactive) and > 109 µM (inactive), respectively. Moreover, the figures for the concentration giving a half-maximal response (EC50) in experiment [9] and in [10] were > 60 µM (not active) and 0.243 µM (active), respectively.

On to `CSc1ccccc1/N=C/c1nc(-c2ccccc2)oc1O`, for which the IC50 on Ephrin type-A receptor 4 was 37.6 µM (active).

Take `C=CCn1c(SCC(=O)Nc2ncc(Cc3cc(C(F)(F)F)ccc3Cl)s2)nnc1-c1ccncc1`: at Ephrin type-A receptor 4, the half-maximal inhibitory concentration (IC50) is reported as > 100 µM (not active).

Take `CN(Cc1ccc(F)cc1)C(=O)c1cccc(OCc2ccccc2)c1`: the values for the IC50 in [6] and in [7] were > 69.5 µM (inactive) and 21.5 µM (inactive), respectively.

With `CCOC(=O)c1sc(NC(=O)CN2C(=O)NC3(CC(C)CC(C)(C)C3)C2=O)cc1C` (stereo unspecified), the results for the CC50 in [11] and in experiment [12] were 30.6 µM (active) and 14.9 µM (active), respectively. In addition, the IC50 in [6] is > 69.5 µM (inactive); in experiment [7], 10.6 µM (inactive). Further, the EC50 was 9.25 µM (active) in experiment [9] and 2.17 µM (active) in [10].

On to `CCS(=O)(=O)c1ncc(Cl)c(C(=O)Nc2ccc(C)cc2)n1`, for which the EC50 in experiment [13] is 5.18 µM (inconclusive); on Protein RecA, 6.94 µM (active); in experiment [9], 4.9 µM (active); in experiment [10], 2.31 µM (active). Also, the AC50 in experiment [3] is 34.9 µM (active); in [14] it was 5.56 µM (active); at Paired box protein Pax-8, 17.2 µM (active). Moreover, the concentration for half-maximal inhibition (IC50) in the experiment with CHO was 3.98 µM (active); at Beta Lactamase it was 7.65 µM (active); in “cells”, 5.21 µM (active). For the same compound, in experiment [15], the CC50 is 21 µM (active).

With `COc1ccc(NS(=O)(=O)c2ccc(OC)c(NC(=O)CCC3CCCC3)c2)cc1`, the IC50 in experiment [6] and in experiment [7] was > 69.5 µM (inactive) in each case.

On to `CCOC(=O)CN1C2=NCCN2c2ccccc21`, for which the IC50 is > 83.4 µM (inactive) in experiment [1] and > 109 µM (inactive) in experiment [2].
